Data set [1] relates to luciferase reporter under the control of an HIF-responsive sequence in HCT 116 cells. The experiment in a line: HIF luciferase assay. It counts as cell-based. The conditions noted are these: Homo sapiens; HCT 116 reporter cells, hypoxia chamber (1% O2), 24 h; comparison compound. The procedure:
HCT 116 cells were stably transfected with a plasmid which contained a luciferase reporter under the control of an HIF-responsive sequence. These cells were sown in microtitre plates [20 000 cells/cavity in RPMI 1640 medium with 10% foetal calf serum (FCS) and 100 μg/ml of hygromycin]. They were incubated overnight under standard conditions (5% CO2, 21% O2, 37° C., moistened). The following morning the cells were incubated with different concentrations of the test substances (0-10 μmol/l) in a hypoxia chamber (1% O2). After 24 h, Bright Glo reagent (Promega, Wis., USA) was added in accordance with the manufacturer's instructions, and after 5 min the luminescence was measured. Cells which were incubated under normoxia served as background controls.

A short description of data set [2]: Pharmacokinetic parameters after intravenous administration in rats. It counts as in vivo. The conditions noted are these: rat, plasma, i.v., comparison compound, read-out: CLplasma (plasma clearance) (converted). The procedure:
(§1) The substance to be examined was administered to animals (for example mice or rats) intravenously as a solution (for example in corresponding plasma with a small addition of DMSO or in a PEG/ethanol/water mixture), and peroral administration was effected as a solution (for example in Solutol/ethanol/water or PEG/ethanol/water mixtures) or as a suspension (e.g. in tylose), in each case via a gavage. After administration of the substance, blood was taken from the animals at fixed times. The blood was heparinized, then plasma was obtained therefrom by centrifugation. The substance was quantified analytically in the plasma via LC-MS/MS. From the plasma concentration/time plots determined in this way, using an internal standard and with the aid of a validated computer program, the pharmacokinetic parameters, such as AUC (area under the concentration/time curve), Cmax, (maximum plasma concentration), t1/2 (half life), VSS (distribution volume) and CL (clearance), and the absolute and relative bioavailability F and Frei (i.v./p.o. comparison or comparison of suspension to solution after p.o. administration), were calculated.
The substance to be examined was administered intravenously to rats, in each case in amounts between 0.3 and 1.0 mg/kg as a solution in plasma which contained up to 2% DMSO.

Data set [3] is described as follows: Pharmacokinetic parameters after peroral administration in rats. It counts as in vivo. The conditions noted are these: 1-3 mg/kg, solution in Solutol/ethanol/water. The procedure: as §1
To determine the active ingredient release from a prodrug compound, the prodrug was administered either intravenously or perorally, as described above, and the concentrations both of the prodrug and of the active ingredient released were quantified in the processed plasma.
The substance to be examined was administered perorally to rats, in each case in amounts between 1 and 3 mg/kg as a solution in Solutol/ethanol/water (40:10:50 or 40:20:40). The kinetic parameters determined for Working Example 1 are shown below by way of example for the inventive compounds [AUCnorm=dose-normalized exposure (area under the concentration/time curve)]:
The second row in this table gives the pharmacokinetic parameters for Example 1, as obtained after peroral administration of the prodrug compound from Example 15 (1 mg/kg of crystalline substance as a tylose suspension in water).

The values below come from patent publication US20130172311A1, “Substituted heterocyclyl benzyl pyrazoles, and use thereof” (BAYER INTELLECTUAL PROPERTY GMBH, priority 2010, published 2013).

For the compound `Cc1ccc(Cn2nc(-c3nc(-c4ccc(OC(F)(F)F)cc4)no3)cc2C)cc1` [Example 1 in WO 2008/141731-A2, 5-[5-methyl-1-(4-methylbenzyl)-1H-pyrazol-3-yl]-3-[4-(trifluoromethoxy)phenyl]-1,2,4-oxadiazole, reference compound], it took 30 nM to reach half-maximal inhibition in data set [1] (IC50). Also, in data set [2], the clearance (as a rule, the volume of plasma or blood freed of the substance per unit of time) was 6.67 mL/min/kg. The “AUCnorm (dose-normalized exposure)” value in data set [3] (p.o.) was 1.9 kg·h/L. The bioavailability – broadly, dose-corrected exposure relative to a reference, in per cent – in data set [3] (rat, plasma, po, read-out: F (bioavailability)) turned out to be 74%.
